Patent publication US20180119105A1, “METHOD FOR PRODUCTION OF INSULIN-PRODUCING CELLS” (University of Copenhagen, priority 2015, published 2018)

Key:
[1] = system: Stable Pdx1 Gfp human ES cells differentiated to pancreatic progenitor stage; assay: Immunostaining (c-peptide, Neurogenin3) with confocal microscopy of hES cell derived pancreatic progenitors treated with VP for 5 days; format: cell-based; conditions: VP 1 μg/ml, compared to DMSO treated cells
Procedure: FIG. 8: hES cell derived pancreatic progenitors treated with VP for 5 days show enhanced endocrine differentiation & Insulin expression. Stable Pdx1 Gfp human ES cells were differentiated to pancreatic progenitor stage and then treated with either DMSO (control) or Verteporfin (VP, 1 μg/ml) for 5 additional days. Cultures were immuno-stained with c-peptide (light grey) and Neurogenin3 (dark grey) antibodies and imaged using confocal microscope.
Stable Pdx1 Gfp human ES cells were differentiated to pancreatic progenitor stage and then treated with either DMSO (control) or Verteporfin (VP, 1 μg/ml) for 5 additional days. Cultures were immuno-stained with c-peptide and Neurogenin3 antibodies and imaged using confocal microscopy (FIG. 8).

[2] = system: hES cell derived pancreatic progenitors (PDX1 eGFP); assay: qRT PCR analysis of hES cell derived pancreatic progenitors treated with verteporfin for 5 days; format: cell-based, human; conditions: verteporfin 5 days
Procedure: FIG. 6: Treatment with verteporfin for 5 days leads to enhanced expression of islet specific genes. […] Expression of NKX6.1 is not altered, as it is expressed in both pancreatic progenitors and mature beta-cells. […]
(§1) We cultured the hES PDX1 GFP cells using a modified protocol from Rezania et al 2010 (see below for the exact protocol, outlined in FIG. 5A) that efficiently generates pancreatic progenitors mostly expressing PDX1, NKX6.1. Briefly, Hues4 hES PDX1 GFP cells were cultured on feeder-free DEF system (““DEF-CS™”, Cellectis stem cells, Cellartis AB”) until full confluency. When full confluency was reached the cells were subjected to differentiation as follows for 5 different stages to obtain insulin producing mature Beta cells.
(§2) Cells were cultured in RPMI medium with 3 μM CHIR99021 (a Wnt activator) for 1 day. During the second day the cells were treated with 100 ng/ml Activin A. For days 3 and 4 the cells were treated with 100 ng/ml Activin A along with 2% (v/v) B27.
(§3) The cultures were exposed to F12 media containing 2% B27, 2 gm/L Sodium bicarbonate along with 0.25 mM Vitamin C and 50 ng/ml FGF7 for two days.
(§4) The cultures were continued for four days in DMEM high glucose media along with 2% B27, 2 g/L Sodium bicarbonate, 0.25 mM Vitamin C, 2 ng/ml FGF7, 0.25 μM Sant1, 100 ng/ml Noggin and 2 μM Retinoic acid.
(§5) Stage 4 cells were cultured for 5 days to obtain PDX1 and NKX6.1 expressing pancreatic progenitor cells by culturing in 2% B27, 2 gm/L Sodium bicarbonate, 0.25 mM Vitamin C, 100 ng/ml Noggin and 500 nM TPB (PKC activator).
(§6) To obtain insulin expressing, MAFA positive mature Beta cells, the cultures were treated with the YAP-TEAD inhibitor Verteporfin at a concentration of 1 μg/ml in Stage 4 medium and cultured for another 4-9 days.
(§7) After culturing the cells for the first 4 stages above (around 15 days), the differentiated hES cells were enriched for PDX1 expression as they expressed GFP. These enriched pancreatic progenitor cultures were treated with the YAP1 -TEAD chemical inhibitor Verteporfin for an additional 4-5 days and checked for gene expression (stage 5). As expected from mouse studies, inhibition of YAP1 activity in the PDX1 enriched cells, using verteporfin after 4 days led to efficient and enhanced endocrine differentiation especially towards insulin producing beta cells at the expense of acinar lineage.
(§8) The verteporfin treatment directed the pancreatic progenitors to endocrine lineage differentiation at the expense of acinar lineage.

[3] = system: hES cell derived pancreatic progenitors (PDX1-eGFP); assay: Immunostaining (C-peptide, Glucagon, GFP) of hES cell derived pancreatic progenitors treated with verteporfin for 5 days; format: cell-based, human
From the text: FIG. 7: Treating hES cell derived pancreatic progenitors with verteporfin for 5 days leads to enhanced insulin expression. Stable PDX1-eGFP human ES cells were differentiated to pancreatic progenitor stage and treated with either DMSO (controls) or Verteporfin for 5 days and immuno stained with C-peptide (white), Glucagon (dark grey) and GFP PDX1 (light grey). Verteporfin-treated progenitors show enhanced endocrine/beta cell differentiation and express higher levels of C-peptide, whereas DMSO treated cells express low levels of C-peptide and Glucagon.
as §8

[4] = system: hES cell derived pancreatic progenitors (PDX1 eGFP); assay: qRT PCR analysis of hES cell derived pancreatic progenitors treated with verteporfin for 4 days; format: cell-based, human; conditions: 1 μg/ml verteporfin, compared to DMSO treated control cultures
Procedure: FIG. 5: Inhibition of YAP1 in hES cell derived pancreatic progenitors leads to β-cell differentiation. (A) Outline of the 15 day protocol (modified from Rezania et al, 2010) used to generate pancreatic progenitors from human ES cells. At the end of the protocol the majority of cells express the progenitor markers PDX1 and NKX6.1. The YAP1-TEAD inhibitor Verteporfin (VP) was added to the medium during PE day 4 and the cells were treated for either 4 or 5 days. […] Y axis: relative mRNA expression as fold change.
as §1, §2, §3, §4, §5, §6, §7

[5] = system: Wild type C57bl6 mouse pancreatic explants at E11.5; assay: RT-qPCR of endocrine gene expression in mouse pancreatic explants cultured ex-vivo with Verteporfin; format: cell-based; conditions: 1 μg/ml Verteporfin for 72 hours; RT-qPCR after 6 days of culture; fold change relative to Ecad expression
Procedure: FIG. 4: Inhibition of Yap1 using Verteporfin in wild type mouse pancreatic explants leads to enhanced endocrine differentiation. Wild type C57bl6 mouse pancreatic explants at E11.5 embryonic stages were cultured ex-vivo for initial 24 hrs in normal culture media supplemented with 1 ug/ml Verteporfin for 72 hours and again in normal culture media without Verteporfin for another 48 hours. The explants were analyzed by RT-qPCR for endocrine gene expression after 6 days of culture. […] This ultimately leads to enhanced endocrine differentiation as analysed for Insulin (E) and Glucagon (F) expression. Y axis: relative expression (fold change relative to Ecad expression).
Wild type C57bl6 mouse pancreatic explants at E11.5 embryonic stages were cultured ex-vivo for initial 24 hours in normal culture media supplemented with 1 μg/ml Verteporfin for 72 hours and again in normal culture media without Verteporfin for another 48 hours. The explants were analyzed by RT-qPCR for endocrine gene expression after 6 days of culture. […] Expression of these genes is characteristic of islet cell fate.

[6] = fold-change versus DMSO control
[7] = verteporfin 5 days vs DMSO, immunostaining

Substance: Verteporfin
- Ngn3 level (immunostaining) [1]: higher levels
- c-peptide level (immunostaining) [1]: higher levels
- insulin mRNA levels up-regulated ([2]; compared to DMSO control cultures): 5 fold
- INSM1 mRNA expression ([2]; compared to day 4 cultures): up-regulation
- ISL1 mRNA expression ([2]; compared to day 4 cultures): up-regulation
- MAFA mRNA expression ([2]; compared to day 4 cultures): up-regulation
- CPA1 mRNA expression (exocrine gene) [2, 6]: down-regulation
- Glucagon mRNA expression [2, 6]: down-regulation
- MAFB mRNA expression [2, 6]: up-regulation
- NKX6.1 mRNA expression [2, 6]: not altered
- Neurogenin3 (NGN3) mRNA expression [2, 6]: up-regulation
- PTF1a mRNA expression (exocrine gene) [2, 6]: down-regulation
- MAFA status of Insulin expressing cells ([3]; verteporfin 5 days): positive for MAFA
- Glucagon protein expression [3, 7]: enhanced
- insulin (c-peptide) protein expression [3, 7]: enhanced
- CPA1 mRNA expression (exocrine gene) [4]: down-regulated
- Glucagon mRNA expression [4]: up-regulation
- ISL-1 mRNA expression [4]: up-regulation
- Insulin mRNA expression [4]: up-regulation
- MAFA mRNA expression [4]: up-regulation
- MAFB mRNA expression [4]: up-regulation
- PTF1a mRNA expression (exocrine gene) [4]: down-regulated
- Arx expression [5]: significant up-regulation
- Glucagon expression [5]: increased expression
- Insm1 expression [5]: significant up-regulation
- Insulin expression [5]: increased expression
- NeuroD expression [5]: significant up-regulation
- Neurogenin (Ngn3) expression [5]: significant up-regulation
